Data published in patent US20240336573A1, “COMPOUND FOR THE TREATMENT AND PROPHYLAXIS OF INFECTIOUS DISEASES” (Eberhard Karls Universität Tübingen Medizinische Fakultät, priority 2021, published 2024).

Columns and labels:
[1] = tested on: E. coli BW25113, E. coli JW2496-3, E. coli ATCC 25922; assay: Minimal inhibitory concentration assay (bactericidal/bacteriostatic assessment); type: cell-based; conditions: dilution series 100-1.7 μM
Description: The intended effect of a SurA inhibitor should be the induction of a disturbance of the outer membrane composition resulting in an increased susceptibility to antibiotic treatment. Of note, Vancomycin is typically not used to treat infections with Gram-negative bacteria, because it is excluded by the OM and not efficient at concentrations that could be achieved in patients. However, at appropriate dosing in vitro it can be used to detect outer membrane defects. For determining a potential sensitizing effect of Vancomycin treatment, the inventors first tested whether the compounds at hand were bactericidal per se. Therefore, the inventors performed a minimal inhibitory concentration (MIC) assay. To this end, 5 ml overnight cultures of E. coli BW25113 (Keio-Collection reference strain), E. coli JW2496-3 (Keio-Collection single gene knockout for bamB, which suffers from decreased outer membrane integrity) and E. coli ATCC 25922 (a reference strain recommended for antibiotic susceptibility testing) were grown in Mueller Hinton Broth, Cation adjusted (MHB-II). The next day, the OD was adjusted to obtain 1*10^8 CFU/ml using fresh MHB-II. Next, this bacterial solution was diluted 1:100 into 20 ml fresh MHB-II. 50 μl of this bacteria solution were then transferred into each well of a 96-well plate prefilled with 50 μl MHB-II supplemented with the desired compounds. The test plates for the bactericidal assessment contained dilution series of the compounds from 100-1.7 μM. Plates were sealed with a gas permeable membrane and incubated o/n at 37° C. in a humid chamber without shaking. After o/n incubation, bacterial growth was quantified by measuring the optical density at 600 nm wavelength in a multiplate reader. Compounds showing no growth inhibition at 100 μM were considered non-bactericidal. Of note, the bactericidal effect of Vancomycin was assessed similarly for each test strain using Vancomycin concentrations ranging from […]. This was done to identify a Vancomycin concentration at which the strains just managed to survive.

E. coli BW25113 = assay: Sensitizer MIC assay (vancomycin); type: cell-based; conditions: 100 μM compound, wildtype strain
Procedure: (§1) To test for the sensitizer properties of the compounds, the inventors then performed a sensitizer MIC assay. To this end, E. coli BW25113, E. coli JW2496-3, and E. coli ATCC 25922 inocula were prepared as described above. Each well of a 96-well plate was prefilled with a fixed compound concentration of 100 μM and a dilution series of Vancomycin ranging from […]. A sensitizing effect was defined as reduction of the MIC value of Vancomycin of the respective test strain.

E. coli JW2496-3 = assay: Sensitizer MIC assay (vancomycin); type: cell-based; conditions: 100 μM compound, more susceptible strain
Procedure: as §1

E. coli ATCC 25922 = assay: Sensitizer MIC assay (vancomycin); type: cell-based; conditions: vancomycin; 100 μM compound; type strain
Procedure: as §1

SurA = SurA (Escherichia coli, UniProt P0ABZ6); assay: Luciferase-based SurA activity assay (primary assay, in-house); type: biochemical, E. coli; conditions: n/d: no signal detected; for Primary Assay ICmax: QHL-10 derivatives, dose response up to 125 μM; for Primary Assay Amplitude: amplitude of signal
Description: The biological function of SurA is to bind and to keep outer membrane proteins that have reached the periplasm in an unfolded but folding-competent state. The inventors' assay is based on this interaction and uses firefly Luciferase (fLuc) as a non-native substrate. […] This is exploited in the assay (FIG. 3). The loss of tertiary structure of fLuc leads to the exposure of binding sites for SurA. It is known that SurA binds selectively to a special group of substrates. These substrates have in common the specific patterns of hydrophobic amino acids that are highly enriched in the beta strands of integral outer membrane proteins. These motifs are present in OMPs of all Gram-negative bacteria and in fLuc as well. Upon mild heat treatment of fLuc and its subsequent partial unfolding, fLuc is accepted as a substrate by SurA. Of note, these intermediates served as reporter substrates to determine the activity of a […] folding chaperone. […] This interaction remains stable upon temperature reduction. Next, the temperature of the assay is reduced to room temperature and luciferase activity is subsequently measured by addition of Luciferin and ATP. In conditions without SurA, fLuc will refold into its active conformation resulting in a luminescence signal.
In short, the Luciferase based SurA activity assay was performed in SurA Activity Assay Buffer (40 mM HEPES pH 7.4, 20 mM MgSO4, 0.5 g/I BSA). SurA aliquots were thawn at RT, activated by mild heat treatment and cooled down to RT for 10 min. […] Solution A containing 10 mM ATP as well as 0.3 mM Luciferin (Promega Beetle Luciferin, Potassium Salt) in water was prepared. Luciferase working solution was prepared by diluting 1 ml Luciferase working stock (100 nM) with 9 ml assay buffer. 33 μl of the protein solution were added to every 2nd row of a well of a 384-well PS, white, flat bottom plate. […] Subsequently, 2 μl of compound in DMSO were added in quadruplicates (4 wells each of protein solution and buffer controls). These compound solutions could contain either various compounds or different dilutions of the same compound allowing screening inhibitor activity in a dose dependent manner. After compound addition, plates were incubated 15 min at RT. After this incubation, 5 μl of Luciferase working solution were added to each well. Next, the plates were incubated 25 min at 38° C. to partially unfold the Luciferase. Subsequently, the assay plate was cooled for 5 min at 4° C. followed by 10 min incubation at RT prior to luminescence measurement. Luminescence was measured in a TECAN infinite M200 pro plate reader for each well individually after injection of 10 μl Solution A.

SurA, sequence (P0ABZ6 21-428): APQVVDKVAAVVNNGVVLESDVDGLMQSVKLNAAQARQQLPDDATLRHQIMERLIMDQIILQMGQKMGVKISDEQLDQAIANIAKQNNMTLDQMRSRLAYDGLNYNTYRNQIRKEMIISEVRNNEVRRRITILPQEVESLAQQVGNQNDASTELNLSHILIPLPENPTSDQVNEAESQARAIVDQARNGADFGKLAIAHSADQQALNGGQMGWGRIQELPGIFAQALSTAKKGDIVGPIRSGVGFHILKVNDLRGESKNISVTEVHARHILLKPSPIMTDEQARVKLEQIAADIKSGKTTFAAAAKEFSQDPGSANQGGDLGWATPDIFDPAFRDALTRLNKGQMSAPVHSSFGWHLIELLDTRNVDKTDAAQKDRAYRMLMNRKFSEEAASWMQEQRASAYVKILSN

Structure (SMILES)	Bacteriostatic MIC Assay Result [1]	Sensitizer MIC Assay (log2-fold reduction of MIC in presence of compound) BW25113 (E. coli BW25113) [log2-fold]	Sensitizer MIC Assay (log2-fold reduction of MIC in presence of compound) JW2496-3 (E. coli JW2496-3)	Sensitizer MIC Assay (log2-fold reduction of MIC in presence of compound) ATCC25922 (E. coli ATCC 25922) [log2-fold]	Primary Assay ICmax (SurA) [µM]	Primary Assay Amplitude (SurA)
CCOC(=O)COc1ccc(Cc2nc(C(N)=O)c(NC(=O)c3ccc(-c4ccccc4)cc3)[nH]2)cc1 [Compound 1a, Ethyl 2-(4-((5-([1,1′-biphenyl]-4-carboxamido)-4-carbamoyl-1H-imidazol-2-yl)methyl)-phenoxy)acetate]	non-bacteriostatic	0	0 log2-fold	0	16	high
CCOC(=O)COc1ccc(Cc2nc(C(N)=O)c(NC(=O)c3cccc(-c4ccccc4)c3)[nH]2)cc1 [Compound 1b, Ethyl 2-(4-((5-([1,1′-biphenyl]-3-carboxamido)-4-carbamoyl-1H-imidazol-2-yl)methyl)phenoxy)acetate]	non-bacteriostatic	–	–	–	–	–
NC(=O)c1nc(Cc2ccc(OCc3ccccc3)cc2)[nH]c1NC(=O)c1ccc(-c2ccccc2)cc1 [Compound 1d, 5-([1,1′-biphenyl]-4-carboxamido)-2-(4-(benzyloxy)benzyl)-1H-imidazole-4-carboxamide]	non-bacteriostatic	0	0 log2-fold	0	32	low
NC(=O)c1nc(Cc2ccccc2)[nH]c1NC(=O)c1ccc(-c2ccccc2)cc1 [Compound 1e, 5-([1,1′-biphenyl]-4-carboxamido)-2-benzyl-1H-imidazole-4-carboxamide]	non-bacteriostatic	0	0 log2-fold	0	16	high
COc1ccc(Cc2nc(C(N)=O)c(NC(=O)c3ccc(-c4ccccc4)cc3)[nH]2)cc1 [Compound 1f, 5-([1,1′-biphenyl]-4-carboxamido)-2-(4-methoxybenzyl)-1H-imidazole-4-carboxamide]	slightly	–	–	–	16	high
NC(=O)c1nc(Cc2ccc(OCC(=O)O)cc2)[nH]c1NC(=O)c1cccc(-c2ccccc2)c1 [Compound 2b, 2-(4-((5-([1,1′-biphenyl]-3-carboxamido)-4-carbamoyl-1H-imidazol-2-yl)methyl)phenoxy)acetic acid]	non-bacteriostatic	0	0 log2-fold	0	64	low
NC(=O)c1nc(Cc2ccc(OCC(=O)O)cc2)[nH]c1NC(=O)c1ccccc1-c1ccccc1 [Compound 2c, 2-(4-((5-([1,1′-biphenyl]-2-carboxamido)-4-carbamoyl-1H-imidazol-2-yl)methyl)phenoxy)acetic acid]	non-bacteriostatic	0	0 log2-fold	0	–	–
NC(=O)c1nc(Cc2ccc(O)cc2)[nH]c1NC(=O)c1ccc(-c2ccccc2)cc1 [Compound 2d, 5-([1,1′-biphenyl]-4-carboxamido)-2-(4-hydroxybenzyl)-1H-imidazole-4-carboxamide]	non-bacteriostatic	–	–	–	16	high
NC(=O)c1nc(-c2cccc(N)c2)[nH]c1NC(=O)Cc1cccc2ccccc12 [Compound 3i, 2-(3-aminophenyl)-5-(2-(naphthalen-1-yl)acetamido)-1H-imidazole-4-carboxamide]	non-bacteriostatic	–	–	–	–	–
NC(=O)c1nc(-c2ccccc2O)[nH]c1NC(=O)Cc1cccc2ccccc12 [Compound 3j, 2-(2-hydroxyphenyl)-5-(2-(naphthalen-1-yl)acetamido)-1H-imidazole-4-carboxamide]	non-bacteriostatic	0	1-4 log2-fold	1	–	–
NC(=O)c1nc(-c2ccc(F)c(N)c2)[nH]c1NC(=O)Cc1cccc2ccccc12 [Compound 3k, 2-(3-amino-4-fluorophenyl)-5-(2-(naphthalen-1-yl)acetamido)-1H-imidazole-4-carboxamide]	non-bacteriostatic	0	0 log2-fold	0	–	–
NC(=O)c1nc(-c2cc(F)c(F)c(F)c2)[nH]c1NC(=O)c1ccccc1OCc1ccccc1 [Compound 3p, 5-(2-(benzyloxy)benzamido)-2-(3,4,5-trifluorophenyl)-1H-imidazole-4-carboxamide]	slightly	–	–	–	–	–
